Patent US20040157802A1, “Anti-microbial agents derived from methionine sulfoximine analogues” (priority 2002, published 2004)
Where “and” joins values, the source holds several entries; their conditions need not be identical. Equal values may be shown once.

Legend:
[1] = cited from earlier work; for Estimtated Dose of L Isomer that Induces Convulsions in Mice (Relative to MSO): Table 1; for Estimtated Dose of L Isomer that Induces Convulsions in Mice (Relative to MSO) / Estimated Dose of L Isomer that Induces Convulsions in Mice (Relative to MSO): relative to MSO = 1; for Estimated Dose of L Isomer that Induces Convulsions in Mice (Relative to MSO): Table 3; for Dose that induces convulsions in mice relative to the dose of MSO: α-Et-MSO: convulsions in a minority of mice vs MSO in 100% of mice
[2] = target: T1, mammalian gamma-glutamylcysteine synthetase (γ-GCS) (Homo sapiens, UniProt P48506); conditions: cited from earlier work
T1 sequence (P48506 1-637): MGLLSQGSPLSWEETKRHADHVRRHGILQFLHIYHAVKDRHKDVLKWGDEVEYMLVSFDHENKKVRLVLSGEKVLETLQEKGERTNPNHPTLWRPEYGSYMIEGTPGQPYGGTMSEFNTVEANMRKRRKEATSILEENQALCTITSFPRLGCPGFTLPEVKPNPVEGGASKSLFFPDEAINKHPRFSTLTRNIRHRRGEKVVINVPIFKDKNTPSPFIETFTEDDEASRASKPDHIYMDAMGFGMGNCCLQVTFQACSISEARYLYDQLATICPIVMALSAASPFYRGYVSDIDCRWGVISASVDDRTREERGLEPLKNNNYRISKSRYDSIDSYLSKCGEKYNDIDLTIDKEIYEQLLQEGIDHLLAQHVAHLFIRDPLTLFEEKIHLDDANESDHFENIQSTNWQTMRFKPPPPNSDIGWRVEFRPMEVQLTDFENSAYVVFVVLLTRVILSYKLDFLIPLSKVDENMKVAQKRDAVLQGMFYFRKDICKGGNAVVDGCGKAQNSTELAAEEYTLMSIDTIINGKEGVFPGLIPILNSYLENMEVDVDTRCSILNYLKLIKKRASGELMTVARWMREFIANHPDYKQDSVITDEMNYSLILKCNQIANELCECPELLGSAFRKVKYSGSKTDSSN

M. tuberculosis Erdman = assay: M. tuberculosis growth in broth culture (CFU); format: cell-based; conditions: for Inhibition of growth of M. tuberculosis in broth culture: 10, 100 or 1000 μM, 6 weeks; for Inhibition of growth of M. tuberculosis in broth culture / Inhibition of M. tuberculosis in broth culture relative to MSO: Example 7; for Efficacy against M. tuberculosis growth in broth culture in comparison with MSO: 10, 100, 1000 μM, Example 6, FIG. 4; for Inhibition of M. tuberculosis in broth culture relative to MSO: at each of 10, 100, 1000 μM
[3] = test system: M. tuberculosis Erdman strain; conditions: in vivo
[4] = target: mammalian glutamine synthetase (MGS) (Homo sapiens, UniProt P15104); conditions: cited from earlier work
Sequence of mammalian glutamine synthetase (MGS) (P15104 2-373 limits assumed): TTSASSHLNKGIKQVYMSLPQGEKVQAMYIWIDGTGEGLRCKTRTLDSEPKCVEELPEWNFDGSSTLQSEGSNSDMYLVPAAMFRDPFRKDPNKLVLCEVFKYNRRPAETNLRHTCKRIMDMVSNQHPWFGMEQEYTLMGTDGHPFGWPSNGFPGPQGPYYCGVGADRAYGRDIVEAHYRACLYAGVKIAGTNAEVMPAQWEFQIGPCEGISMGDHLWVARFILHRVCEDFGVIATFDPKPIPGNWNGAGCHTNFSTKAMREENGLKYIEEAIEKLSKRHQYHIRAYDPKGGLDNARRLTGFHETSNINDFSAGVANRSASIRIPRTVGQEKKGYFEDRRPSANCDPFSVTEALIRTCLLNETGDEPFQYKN

[5] = test system: M. tuberculosis Erdman in human macrophages (THP-1 cells); conditions: 20, 200, 2000 μM, FIG. 5
[6] = cited from earlier work
[7] = BSO at doses that fully inhibit glutathione synthesis, guinea pigs; cited from earlier work

SMILES	Estimtated Dose of L Isomer that Induces Convulsions in Mice (Relative to MSO) [1]	Estimated Dose of L Isomer that Induces Convulsions in Mice (Relative to MSO) [1]	Inhibition of γ-GCS [2]	Inhibition of growth of M. tuberculosis in broth culture (M. tuberculosis Erdman)	Protection from weight loss, drug administered alone [3]	Inhibition of mammalian GS [4]	Dose that induces convulsions in mice relative to the dose of MSO [1]	Inhibition of M. tuberculosis growth in human macrophages [5]	Efficacy against M. tuberculosis growth in broth culture in comparison with MSO (M. tuberculosis Erdman)	Inhibition of M. tuberculosis in broth culture relative to MSO (M. tuberculosis Erdman)	Metabolism [6]	also measured
CS(=N)(=O)CC[C@H](N)C(=O)O (stereo partly drawn) [MSO, L-methionine-SR-sulfoximine]	1	1	inhibit γ-GCS	inhibited M. tuberculosis	protected animals from weight loss	inhibit mammalian GS						Fewer CFU of M. tuberculosis in organs than control animals [3]: approximately 1 log unit; Reduction of CFU of M. tuberculosis compared with control animals [3]: ~0.7 logs; Weight loss compared with untreated control animals [3]: protected from a precipitous decline in weight loss in the final week; Reduction of CFU in the lungs and spleen compared with untreated controls ([3]; ip): 2.5 logs; MTD in the presence of ascorbate relative to MTD in the absence of ascorbate (guinea pig, in vivo): 4 fold; Maximum tolerated dose for guinea pigs infected with M. tuberculosis (guinea pig, in vivo): 1.5 mg/kg/day; Tolerability (guinea pig, in vivo): early weight loss
NNC(=O)c1ccncc1 [INH, isoniazid]					protected animals from weight loss							Reduction of CFU in lung and spleen below the level obtained with MSO [3]: ~1.5 logs and ~2.5 logs
CCC(N)(CCS(C)(=N)=O)C(=O)O (racemic) [α-Et-MSO, α-ethyl-DL-methionine-SR-sulfoximine]	>16	≧16	specific to GS	inhibited M. tuberculosis		inhibit mammalian GS	16 fold	readily inhibited	as inhibitory to M. tuberculosis growth as MSO	as inhibitory or slightly more inhibitory than MSO	resistant to metabolism	
CC(N)(CCS(C)(=N)=O)C(=O)O (racemic) [α-Me-MSO, α-methyl-DL-methionine-SR-sulfoximine]	8	8	inhibit γ-GCS	inhibited M. tuberculosis		inhibit mammalian GS	~8 fold	readily inhibited	as inhibitory to M. tuberculosis growth as MSO	slightly less inhibitory than MSO	resistant to metabolism	
O=C1O[C@H]([C@@H](O)CO)C(O)=C1O [ascorbate]												Well tolerated total dose of ascorbate (i.p., guinea pigs, 9 mmoles kg^−1 day^−1 not well tolerated): 3 mmol/kg/day
CCCCS(=N)(=O)CCC(N)C(=O)O [BSO, D, L-Buthionine-SR-Sulfoximine, reference compound]				did not								Animals killed [7]: 100%
